Source: patent publication US20110021565A1, “PIPERIDINE DERIVATIVES AS NK3 ANTAGONISTS” (priority 2007, published 2011)
Where two headings read alike, the source gives them in different places.

Biological target: T1, recombinant human NK3 receptor (Homo sapiens, UniProt P29371)
T1 construct: expressed in transfected cells; host or cells: HEK293 cells, transient expression; membrane preparation
T1 sequence (P29371 1-465): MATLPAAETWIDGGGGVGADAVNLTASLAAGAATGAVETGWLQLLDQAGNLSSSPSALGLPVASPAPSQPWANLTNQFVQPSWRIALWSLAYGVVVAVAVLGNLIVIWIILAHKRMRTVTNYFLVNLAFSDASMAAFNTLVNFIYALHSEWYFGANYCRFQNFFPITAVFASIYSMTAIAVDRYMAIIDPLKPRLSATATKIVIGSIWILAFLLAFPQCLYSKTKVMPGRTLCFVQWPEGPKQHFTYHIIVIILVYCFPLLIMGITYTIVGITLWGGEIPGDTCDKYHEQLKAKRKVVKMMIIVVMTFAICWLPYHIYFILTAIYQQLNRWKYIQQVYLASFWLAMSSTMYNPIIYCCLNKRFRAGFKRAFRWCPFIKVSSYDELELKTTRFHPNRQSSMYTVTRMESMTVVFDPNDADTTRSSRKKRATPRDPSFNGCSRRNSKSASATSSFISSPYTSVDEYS
Assay: [3H]SR142801 competition binding assay
Summary of the method: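 Ki derived by Cheng-Prusoff from Hill-fitted IC50 curves, duplicates, 10 μM SB222200 defining nonspecific binding. Radioligand used at KD concentration against compound at 0.0003-10 μM; transiently transfected HEK293 membranes, 5 μg/well, 75 min room temperature, Tris-HCl/MnCl2/phosphoramidon/BSA pH 7.4. Filter-bound counts read by scintillation.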

[1] = [3H]SR142801, membranes of HEK293 cells transiently expressing recombinant human NK3 receptor, read-out: hNK3 Ki
[2] = representative compounds, [3H]SR142801, HEK293 membranes, human NK3 receptor, read-out: Ki NK3 h

Row | Compound | Ki [1] [nM] | Ki [2] [nM]
1 | CC(=O)NC1CCN(CCC(C)(C(=O)N[C@@H](CO)c2ccc(Cl)cc2)c2ccc(Cl)c(Cl)c2)CC1 (single isomer, unassigned; diastereoisomer 2) [Example 157, 4-(4-Acetylamino-piperidin-1-yl)-N-[1-(4-chloro-phenyl)-2-hydroxy-ethyl]-2-(3,4-dichloro-phenyl)-2-methyl-butyramide (diastereoisomer 2)] | 773 | –
2 | CCN(C1CCN(CCC(C)(C(=O)N(C)Cc2ccc(Cl)c(Cl)c2)c2ccc(Cl)c(Cl)c2)CC1)S(C)(=O)=O (stereo not shown) [Example 70, N-(3,4-Dichloro-benzyl)-2-(3,4-dichloro-phenyl)-4-[4-(ethyl-methanesulfonyl-amino)-piperidin-1-yl]-2,N-dimethyl-butyramide] | 1.2 | 1.2
3 | CCCN(C(C)=O)C1CCN(CCC(C)(C(=O)N[C@@H](CO)c2ccc(F)cc2)c2ccc(Cl)c(Cl)c2)CC1 (single isomer, unassigned; epimer 2) [Example 163] | 5.6 | 5.6
4 | CN(Cc1ccc(C(F)(F)F)c(F)c1)C(=O)C(CCN1CCC(NS(C)(=O)=O)CC1)c1ccc(Cl)c(Cl)c1 (stereo not shown) [Example 32, 2-(3,4-Dichloro-phenyl)-N-(3-fluoro-4-trifluoromethyl-benzyl)-4-(4-methanesulfonyl-amino-piperidin-1-yl)-N-methyl-butyramide] | 61.7 | –
5 | CC(CCN1CCC(N2CCCC2=O)CC1)(C(=O)NC(c1ccc(C(F)(F)F)cc1)C(F)(F)F)c1ccc(Cl)c(Cl)c1 (stereo not shown) [Example 97, 2-(3,4-Dichloro-phenyl)-2-methyl-4-[4-(2-oxo-pyrrolidin-1-yl)-piperidin-1-yl]-N-[2,2,2-trifluoro-1-(4-trifluoromethyl-phenyl)-ethyl]-butyramide] | 8.1 | –
6 | CN(Cc1ccc(C(F)(F)F)cc1)C(=O)C(C)(CCN1CCC(N2CCCC2=O)CC1)c1ccc(Cl)c(Cl)c1 (stereo not shown) [Example 88, 2-(3,4-Dichloro-phenyl)-2,N-dimethyl-4-[4-(2-oxo-pyrrolidin-1-yl)-piperidin-1-yl]-N-(4-trifluoromethyl-benzyl)-butyramide] | 1.8 | 1.8
7 | CN(Cc1ccc(Cl)c(C(F)(F)F)c1)C(=O)C(F)(CCN1CCC(NS(C)(=O)=O)CC1)c1ccc(Cl)c(Cl)c1 (stereo not shown) [Example 63, N-(4-Chloro-3-trifluoromethyl-benzyl)-2-(3,4-dichloro-phenyl)-2-fluoro-4-(4-methanesulfonyl-amino-piperidin-1-yl)-N-methyl-butyramide] | 117 | –
8 | COCCN(C(C)=O)C1CCN(CCC(C)(C(=O)N[C@@H](CO)c2ccc(F)cc2)c2ccc(Cl)c(Cl)c2)CC1 (single isomer, unassigned; diastereoisomer 1) [Example 146, 4-{4-[Acetyl-(2-methoxy-ethyl)-amino]-piperidin-1-yl}-2-(3,4-dichloro-phenyl)-N-[1-(4-fluoro-phenyl)-2-hydroxy-ethyl]-2-methyl-butyramide (diastereoisomer 1)] | 0.7 | 0.7
9 | CN(Cc1ccc(Cl)cc1)C(=O)C(CCN1CCC(N2CCCC2=O)CC1)c1ccccc1 (stereo not shown) [Example 114, N-(4-Chloro-benzyl)-N-methyl-4-[4-(2-oxo-pyrrolidin-1-yl)-piperidin-1-yl]-2-phenyl-butyramide] | 560 | –
10 | CN(Cc1ccc(Cl)c(C(F)(F)F)c1)C(=O)C(F)(CCN1CCC(N(C)S(C)(=O)=O)CC1)c1ccc(Cl)c(Cl)c1 (stereo not shown) [Example 54, N-(4-Chloro-3-trifluoromethyl-benzyl)-2-(3,4-dichloro-phenyl)-2-fluoro-4-[4-(methanesulfonyl-methyl-amino)-piperidin-1-yl]-N-methyl-butyramide] | 24.5 | –
11 | CC(CCN1CCC(NS(C)(=O)=O)CC1)(C(=O)NCc1ccc(Cl)c(Cl)c1)c1ccc(Cl)c(Cl)c1 (stereo not shown) [Example 11, N-(3,4-Dichloro-benzyl)-2-(3,4-dichloro-phenyl)-4-(4-methanesulfonyl-amino-piperidin-1-yl)-2-methyl-butyramide] | 44.2 | –
12 | CC(=O)N(C)C1CCN(CCC(C)(C(=O)N[C@H](CO)c2ccc(Cl)cc2)c2ccc(Cl)c(Cl)c2)CC1 (stereo partly drawn) [Example 137, 4-[4-(Acetyl-methyl-amino)-piperidin-1-yl]-N-[1-(4-chloro-phenyl)-2-hydroxy-ethyl]-2-(3,4-dichloro-phenyl)-2-methyl-butyramide (diastereosisomer 2)] | 56 | –
13 | CCN(C1CCN(CCC(C)(C(=O)N(C)Cc2cccc(Cl)c2)c2ccc(Cl)c(Cl)c2)CC1)S(C)(=O)=O (stereo not shown) [Example 75, N-(3-Chloro-benzyl)-2-(3,4-dichloro-phenyl)-4-[4-(ethyl-methanesulfonyl-amino)-piperidin-1-yl]-2,N-dimethyl-butyramide] | 3.9 | 3.9
14 | CN(C1CCN(CCC(C)(C(=O)N[C@@H](CO)c2ccc(Cl)c(Cl)c2)c2ccc(Cl)c(Cl)c2)CC1)S(C)(=O)=O (single isomer, unassigned; diastereoisomer 1) [Example 49, 2-(3,4-Dichloro-phenyl)-N-[1-(3,4-dichloro-phenyl)-2-hydroxy-ethyl]-4-[4-(methanesulfonyl-methyl-amino)-piperidin-1-yl]-2-methyl-butyramide; diastereoisomer 1] | 5.5 | 5.5
15 | CC[C@H](NC(=O)C(C)(CCN1CCC(N2CCCC2=O)CC1)c1ccc(Cl)c(Cl)c1)c1ccccc1 (stereo partly drawn) [Example 127, 2-(3,4-Dichloro-phenyl)-2-methyl-4-[4-(2-oxo-pyrrolidin-1-yl)-piperidin-1-yl]-N-((S)-1-phenyl-propyl)-butyramide] | 5.2 | 5.2
16 | CN(Cc1ccc(F)c(C(F)(F)F)c1)C(=O)C(C)(CCN1CCC(N(C2CC2)S(C)(=O)=O)CC1)c1ccc(Cl)c(Cl)c1 (stereo not shown) [Example 59, 4-[4-(Cyclopropyl-methanesulfonyl-amino)-piperidin-1-yl]-2-(3,4-dichloro-phenyl)-N-(4-fluoro-3-trifluoromethyl-benzyl)-2,N-dimethyl-butyramide] | 4.3 | 4.3
17 | CC(CCN1CCC(NS(C)(=O)=O)CC1)(C(=O)NCc1cc(C(F)(F)F)cc(C(F)(F)F)c1)c1ccc(Cl)c(Cl)c1 (stereo not shown) [Example 4, N-(3,5-Bis-trifluoromethyl-benzyl)-2-(3,4-dichloro-phenyl)-4-(4-methanesulfonyl-amino-piperidin-1-yl)-2-methyl-butyramide] | 140 | –
18 | CN(Cc1ccccc1Cl)C(=O)C(C)(CCN1CCC(NS(C)(=O)=O)CC1)c1ccc(Cl)c(Cl)c1 (stereo not shown) [Example 18, N-(2-Chloro-benzyl)-2-(3,4-dichloro-phenyl)-4-(4-methanesulfonyl-amino-piperidin-1-yl)-2,N-dimethyl-butyramide] | 33.3 | –
19 | CN(Cc1ccc(Cl)cc1)C(=O)C(CCN1CCC(N2CCCC2=O)CC1)c1ccc(Cl)nc1 (stereo not shown) [Example 117, N-(4-Chloro-benzyl)-2-(6-chloro-pyridin-3-yl)-N-methyl-4-[4-(2-oxo-pyrrolidin-1-yl)-piperidin-1-yl]-butyramide] | 387 | –
20 | CC(=O)N(C)C1CCN(CCC(C)(C(=O)N[C@@H](CO)c2ccc(Cl)cc2)c2ccc(Cl)c(Cl)c2)CC1 (stereo partly drawn) [Example 136, 4-[4-(Acetyl-methyl-amino)-piperidin-1-yl]-N-[1-(4-chloro-phenyl)-2-hydroxy-ethyl]-2-(3,4-dichloro-phenyl)-2-methyl-butyramide (diastereosisomer 1)] | 9.6 | 9.6
21 | CS(=O)(=O)NC1CCN(CCC(C(=O)NCc2ccc(Cl)c(Cl)c2)c2ccc(Cl)c(Cl)c2)CC1 (stereo not shown) [Example 42, N-(3,4-Dichloro-benzyl)-2-(3,4-dichloro-phenyl)-4-(4-methanesulfonyl-amino-piperidin-1-yl)-butyramide] | 192 | –
22 | CN(Cc1cccc(Cl)c1)C(=O)C(F)(CCN1CCC(NS(C)(=O)=O)CC1)c1ccc(Cl)c(Cl)c1 (stereo not shown) [Example 65, N-(3-Chlorobenzyl)-2-(3,4-dichloro-phenyl)-2-fluoro-4-(4-methanesulfonyl-amino-piperidin-1-yl)-N-methyl-butyramide] | 307 | –
23 | COCCN(C(C)=O)C1CCN(CCC(C)(C(=O)N[C@@H](CO)c2ccc(F)cc2)c2ccc(Cl)c(Cl)c2)CC1 (single isomer, unassigned) [Example 151, 4-{4-[Acetyl-(2-methoxy-ethyl)-amino]-piperidin-1-yl}-2-(3,4-dichloro-phenyl)-N-[(R)-1-(4-fluoro-phenyl)-2-hydroxy-ethyl]-2-(S or R) methyl-butyramide] | 21.1 | –
24 | CC(=O)N(C)C1CCN(CCC(C)(C(=O)N(C)Cc2ccc(C)cc2)c2ccc(Cl)c(Cl)c2)CC1 (stereo not shown) [Example 107, 4-[4-(Acetyl-methyl-amino)-piperidin-1-yl]-2-(3,4-dichloro-phenyl)-2,N-dimethyl-N-(4-methyl-benzyl)-butyramide] | 10.6 | –
25 | CCCN(C(C)=O)C1CCN(CCC(C)(C(=O)N[C@H](CC)c2ccccc2)c2ccc(Cl)c(Cl)c2)CC1 (stereo partly drawn) [Example 165, 4-[4-(Acetyl-propyl-amino)-piperidin-1-yl]-2-(3,4-dichloro-phenyl)-2-methyl-N-((R)-1-phenyl-propyl)-butyramide] | 14.5 | –
